In PubChem BioAssay (NCI):
“And” between values parts separate entries of the source, which are not always exact repeats. Equal values may be shown once.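 Where inhibition never reached the appropriate level, the endpoint shown equals the highest concentration tested. Otherwise, values were interpolated linearly from a five-concentration, 48-hour dose response in 96-well plates. GI50 marks 50% less growth. TGI: total growth inhibition.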

Key:
Experiment in all cases: NCI anticancer screen, dose series, 48 h
[1] = system: NCI-H226 lung
[2] = system: SR leukemia
[3] = system: OVCAR-8 ovarian
[4] = system: OVCAR-5 ovarian
[5] = system: RXF 393 renal
[6] = system: SF-539 CNS
[7] = system: SNB-75 CNS
[8] = system: EKVX NSCLC
[9] = system: SK-MEL-28 melanoma
[10] = system: COLO 205 colon

SMILES | GI50 [1] | TGI [1] | GI50 [2] | TGI [2] | GI50 [3] | TGI [3] | GI50 [4] | TGI [4] | GI50 [5] | TGI [5] | TGI [6] | GI50 [7] | TGI [7] | GI50 [8] | TGI [8] | GI50 [9] | TGI [9] | GI50 [10] | TGI [10] | GI50 [6]
COc1cc(O)c2c(c1)C(=O)c1cc3c(c(O)c1C2=O)C(OC1OC(C)C(O)C(O)C1OC)C(OC)C(C)(O)C3=O (stereo not drawn) | 2.22 µM | 4.82 µM and 9.03 µM | 2.16 µM | > 100 µM | 1.42 µM and 0.373 µM | 5.27 µM and 1.62 µM | 2.18 µM | 8.48 µM and 9.24 µM | 1.01 µM | 6.72 µM and 4.38 µM | 4.52 µM and 5.99 µM | 2.84 µM | 15.7 µM and 10.1 µM | 2.74 µM | 7.21 µM and 5.39 µM | 2.24 µM and 1.74 µM | 5.97 µM and 5.4 µM | 1.31 µM | 5.2 µM and 3.25 µM | 
C[C@H](CCCNCCCNCCCN)[C@H]1CC[C@H]2[C@@H]3[C@H](OCCCN)C[C@H]4C[C@H](OCCCN)CC[C@]4(C)[C@H]3C[C@H](OCCCN)[C@]12C |  | > 76.7 µM | 0.326 µM | 1.66 µM | 2.27 µM | > 55.8 µM | 17.5 µM | > 100 µM | 6.29 µM | 46.9 µM | 3.46 µM | 8.49 µM | > 83.9 µM | 5.43 µM | > 43.9 µM | 0.573 µM | 4.13 µM | 1.1 µM | 15.3 µM | 0.98 µM
O=c1c2c3c(sc2nc(N/N=C/c2ccc(Br)cc2)n1Cc1ccccc1)CCCC3 | 37.4 µM | > 100 µM | 4.98 µM | > 100 µM | 47 µM | > 100 µM | > 100 µM | > 100 µM | 5.98 µM | > 100 µM | > 100 µM | 3.33 µM | > 100 µM | 7.76 µM | > 100 µM | > 100 µM | > 100 µM | 5.88 µM | > 100 µM | 10.8 µM
COC1CC(NC(=O)C(F)(F)F)C(OC(C)=O)C(C)O1 (stereo not drawn) |  | > 100 µM |  | > 100 µM |  | > 100 µM |  | > 100 µM |  | > 100 µM | > 100 µM |  | > 100 µM |  | > 100 µM |  | > 100 µM |  | > 100 µM | 
O=C(NN=C1CCCCC1)c1[nH]c2ccc(F)cc2c1-c1ccccc1 | 49.1 µM | > 100 µM | 12.9 µM | 41.9 µM | 51.4 µM | > 100 µM | 45.6 µM | > 100 µM | 98.5 µM | > 100 µM | > 100 µM | 19.6 µM | 58.1 µM | 63.2 µM | > 100 µM | 27.3 µM | > 100 µM | 41.6 µM | > 100 µM | 52 µM
CC(=O)Oc1cc2c(OC(C)=O)c(-c3c(C)cc4c(C(C)C)c(OC(C)=O)c(OC(C)=O)cc4c3OC(C)=O)c(C)cc2c(C(C)C)c1OC(C)=O | 1.14 µM and 4.72 µM and 8.69 µM | 2.58 µM and 11.1 µM and 20.9 µM | 28.3 µM and 6.93 µM | > 100 µM and 21.4 µM | 6.44 µM and 5.89 µM and 11.8 µM | 19.1 µM and 17.6 µM and > 57.6 µM | 5.86 µM and 5.87 µM and 9.81 µM | 13.6 µM and 12.9 µM and 25 µM | 14 µM and 16.3 µM and 4.05 µM | 30.6 µM and 34.5 µM and 14.9 µM | 12.5 µM and 10.5 µM and 31.3 µM | 2.32 µM and 13.7 µM and 16.3 µM | 24.9 µM and > 52.7 µM and 62.8 µM | 4.82 µM and 4.81 µM and 9.21 µM | 10.6 µM and 9.92 µM and 26.7 µM | 5.12 µM and 15.3 µM and 18.8 µM | 12.4 µM and 35.1 µM and 41.1 µM | 9.61 µM and 5.5 µM and 10.1 µM | 13 µM and 21.3 µM | 6.52 µM and 5.37 µM and 12.5 µM
O=c1c2ccccc2c2ccccc2c(=O)n1Cc1ccc2c(c1)OCO2 |  | > 100 µM |  | 84.5 µM |  | > 100 µM |  | > 100 µM |  | > 84.2 µM | > 94.5 µM |  | > 93.6 µM |  | > 100 µM |  | > 100 µM |  | > 100 µM | 
CC1=C[P+](Cc2ccccc2)(c2ccccc2)CC1 (stereo not drawn) |  | > 100 µM |  | > 100 µM |  | > 100 µM |  | > 100 µM |  | > 100 µM | > 100 µM |  | > 100 µM |  | > 100 µM |  | > 100 µM |  | > 100 µM | 
COc1cnc2c(c1)C(=O)c1c-2n(CCCNC(C)C)c(=O)c2cc(F)ccc12 | 0.146 µM | 0.325 µM | 0.0758 µM | 0.839 µM | 0.141 µM | 1.28 µM | 0.277 µM | 0.856 µM | 0.23 µM | 0.702 µM | 0.703 µM | 0.219 µM | 1.39 µM | 0.299 µM | 1.73 µM | 0.94 µM | 2.51 µM | 0.0905 µM | 0.643 µM | 0.245 µM
CCCCCCCCCCCCOC1C(C(CC(=O)N2CCN(c3cccc(C(F)(F)F)c3)CC2)NS(=O)(=O)c2cc(Cl)cc(Cl)c2)OC2OC(C)(C)OC21 (stereo not drawn) | > 100 µM | > 100 µM | > 100 µM | > 100 µM | > 100 µM | > 100 µM | > 37.5 µM | > 100 µM | > 100 µM | > 100 µM | > 100 µM | > 100 µM | > 100 µM | > 100 µM | > 100 µM | > 100 µM | > 100 µM | > 100 µM | > 100 µM | > 100 µM
Cc1cc(O)cc(C)c1/C=C/c1cncc(-c2nn[nH]n2)c1 | > 25 µM | > 25 µM | > 25 µM | > 25 µM | > 25 µM | > 25 µM | > 25 µM | > 25 µM | > 25 µM | > 25 µM | > 25 µM | > 25 µM | > 25 µM | > 25 µM | > 25 µM | > 25 µM | > 25 µM | > 25 µM | > 25 µM | > 25 µM
N#CCC(=O)N/N=C(\C(=O)Nc1ccc(Cl)c(Cl)c1)C1CN(c2ccccc2)N=C1N (stereo not drawn) |  | > 100 µM |  | > 100 µM |  | > 100 µM |  | > 100 µM |  | > 100 µM | > 100 µM |  | > 100 µM |  | > 100 µM |  | > 100 µM |  | > 100 µM | 
COc1ccc2nc3ccccc3c(NCCCN(C)CCCl)c2c1 |  | 1.62 µM |  | 0.146 µM |  | 2.02 µM |  | 3.4 µM |  | 1.45 µM | 1.29 µM |  | 1.47 µM |  | 3.15 µM |  | 2.01 µM |  | 1.65 µM | 
CCOC(=O)/C(=C(/C)NCC(C)C)c1cc(O)c(O)c2c(C)cc(=O)[nH]c12 | 10.6 µM | > 100 µM | 4.02 µM | > 100 µM | 4.87 µM | > 100 µM | 64.7 µM | > 100 µM | 1.18 µM | 20.4 µM | 85.1 µM | 3.85 µM | 29.8 µM | 5.45 µM | > 100 µM | 34.7 µM | > 100 µM | > 100 µM | > 100 µM | 5.52 µM
